Legend:
[1] = molecular target: T1, Ephrin type-A receptor 8 (Homo sapiens) (UniProt P29322)
T1 sequence (whole entry): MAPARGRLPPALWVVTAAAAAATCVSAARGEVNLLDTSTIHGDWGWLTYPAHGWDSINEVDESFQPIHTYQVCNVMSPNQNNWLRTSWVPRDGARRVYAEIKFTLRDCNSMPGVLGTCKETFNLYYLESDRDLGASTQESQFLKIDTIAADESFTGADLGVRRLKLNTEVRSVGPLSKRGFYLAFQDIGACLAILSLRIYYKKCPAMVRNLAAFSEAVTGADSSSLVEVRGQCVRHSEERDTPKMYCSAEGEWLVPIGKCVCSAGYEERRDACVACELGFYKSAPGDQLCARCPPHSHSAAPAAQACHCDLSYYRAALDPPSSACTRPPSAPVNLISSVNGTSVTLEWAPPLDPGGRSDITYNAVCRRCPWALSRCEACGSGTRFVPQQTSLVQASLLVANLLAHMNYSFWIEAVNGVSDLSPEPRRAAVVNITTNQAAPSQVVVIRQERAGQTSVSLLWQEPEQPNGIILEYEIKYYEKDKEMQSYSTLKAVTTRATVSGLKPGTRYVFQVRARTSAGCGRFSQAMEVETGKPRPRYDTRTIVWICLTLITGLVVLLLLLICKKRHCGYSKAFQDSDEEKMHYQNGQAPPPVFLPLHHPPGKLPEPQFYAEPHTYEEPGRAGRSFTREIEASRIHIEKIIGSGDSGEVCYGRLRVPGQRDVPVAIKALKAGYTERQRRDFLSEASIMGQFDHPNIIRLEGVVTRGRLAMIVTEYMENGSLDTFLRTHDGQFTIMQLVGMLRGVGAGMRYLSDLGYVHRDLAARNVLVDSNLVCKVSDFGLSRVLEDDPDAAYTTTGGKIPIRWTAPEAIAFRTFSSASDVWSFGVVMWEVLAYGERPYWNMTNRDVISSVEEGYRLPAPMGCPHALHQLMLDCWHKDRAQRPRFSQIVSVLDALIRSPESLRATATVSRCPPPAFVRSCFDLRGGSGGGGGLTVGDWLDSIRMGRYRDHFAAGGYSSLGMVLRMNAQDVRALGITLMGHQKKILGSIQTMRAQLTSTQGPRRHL

[2] = tested on: Receptor-type tyrosine-protein kinase FLT3 (Homo sapiens), P36888 [UNDEFINED MUTATION]
[3] = molecular target: Activin receptor type-2A (Homo sapiens) (UniProt P27037)
[4] = molecular target: Casein kinase II subunit alpha' (Homo sapiens) (UniProt P19784)
[5] = tested on: Epidermal growth factor receptor (Homo sapiens), P00533 [L858R,T790M]
[6] = molecular target: T2, Serine/threonine-protein kinase D1 (Homo sapiens) (UniProt Q15139)
T2 sequence (whole entry): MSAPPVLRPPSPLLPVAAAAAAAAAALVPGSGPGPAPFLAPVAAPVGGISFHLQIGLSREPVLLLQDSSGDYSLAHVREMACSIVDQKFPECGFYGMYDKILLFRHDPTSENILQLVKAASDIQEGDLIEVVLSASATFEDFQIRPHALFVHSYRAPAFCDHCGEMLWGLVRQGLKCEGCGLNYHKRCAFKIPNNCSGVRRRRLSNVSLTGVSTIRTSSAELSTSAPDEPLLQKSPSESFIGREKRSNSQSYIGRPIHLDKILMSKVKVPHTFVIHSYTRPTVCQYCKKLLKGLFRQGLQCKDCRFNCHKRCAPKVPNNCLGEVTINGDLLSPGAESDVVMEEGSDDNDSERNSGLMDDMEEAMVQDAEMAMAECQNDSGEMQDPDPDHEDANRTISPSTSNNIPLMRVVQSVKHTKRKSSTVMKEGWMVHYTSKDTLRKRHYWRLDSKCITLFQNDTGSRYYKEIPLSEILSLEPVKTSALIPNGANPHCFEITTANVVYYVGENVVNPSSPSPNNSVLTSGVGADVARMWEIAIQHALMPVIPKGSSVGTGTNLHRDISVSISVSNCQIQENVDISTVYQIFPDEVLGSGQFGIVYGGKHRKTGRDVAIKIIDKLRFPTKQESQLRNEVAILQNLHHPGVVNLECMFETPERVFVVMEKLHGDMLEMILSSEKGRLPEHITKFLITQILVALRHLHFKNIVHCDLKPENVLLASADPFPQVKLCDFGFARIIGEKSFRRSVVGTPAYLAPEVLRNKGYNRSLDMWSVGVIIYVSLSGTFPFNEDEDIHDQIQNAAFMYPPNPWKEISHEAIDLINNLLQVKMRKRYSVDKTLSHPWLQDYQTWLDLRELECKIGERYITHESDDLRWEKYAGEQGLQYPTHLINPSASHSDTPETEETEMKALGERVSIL

[7] = molecular target: T3, Serine/threonine-protein kinase D3 (Homo sapiens) (UniProt O94806)
T3 sequence (whole entry): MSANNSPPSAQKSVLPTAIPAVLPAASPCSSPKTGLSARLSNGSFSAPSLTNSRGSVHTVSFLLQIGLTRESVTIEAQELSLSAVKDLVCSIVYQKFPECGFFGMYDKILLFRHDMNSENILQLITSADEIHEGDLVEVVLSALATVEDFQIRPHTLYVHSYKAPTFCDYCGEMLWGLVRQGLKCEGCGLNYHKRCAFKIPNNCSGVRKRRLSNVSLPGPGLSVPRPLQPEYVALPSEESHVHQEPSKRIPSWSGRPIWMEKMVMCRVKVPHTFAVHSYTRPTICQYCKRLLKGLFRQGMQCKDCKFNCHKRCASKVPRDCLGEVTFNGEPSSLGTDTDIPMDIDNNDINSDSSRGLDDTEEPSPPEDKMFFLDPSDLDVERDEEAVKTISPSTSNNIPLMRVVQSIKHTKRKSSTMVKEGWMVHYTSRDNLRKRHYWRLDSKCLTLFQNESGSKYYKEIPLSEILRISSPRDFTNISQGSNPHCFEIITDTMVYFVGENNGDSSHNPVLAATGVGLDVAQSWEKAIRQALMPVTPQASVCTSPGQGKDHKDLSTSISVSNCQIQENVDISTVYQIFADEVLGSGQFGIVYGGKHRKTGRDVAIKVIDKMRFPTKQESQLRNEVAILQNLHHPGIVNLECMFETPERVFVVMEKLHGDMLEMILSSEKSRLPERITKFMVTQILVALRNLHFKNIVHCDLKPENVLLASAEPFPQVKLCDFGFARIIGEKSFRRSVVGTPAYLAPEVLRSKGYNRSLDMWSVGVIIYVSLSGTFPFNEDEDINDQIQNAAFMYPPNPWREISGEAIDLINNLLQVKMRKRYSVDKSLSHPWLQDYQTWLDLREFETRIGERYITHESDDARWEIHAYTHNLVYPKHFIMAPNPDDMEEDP

[8] = Compound concentration 1000.0 nM
[9] = Compound concentration 100.0 nM

Measured: residual activity

Sequence of Casein kinase II subunit alpha' (Homo sapiens) (P19784 whole entry, looked up): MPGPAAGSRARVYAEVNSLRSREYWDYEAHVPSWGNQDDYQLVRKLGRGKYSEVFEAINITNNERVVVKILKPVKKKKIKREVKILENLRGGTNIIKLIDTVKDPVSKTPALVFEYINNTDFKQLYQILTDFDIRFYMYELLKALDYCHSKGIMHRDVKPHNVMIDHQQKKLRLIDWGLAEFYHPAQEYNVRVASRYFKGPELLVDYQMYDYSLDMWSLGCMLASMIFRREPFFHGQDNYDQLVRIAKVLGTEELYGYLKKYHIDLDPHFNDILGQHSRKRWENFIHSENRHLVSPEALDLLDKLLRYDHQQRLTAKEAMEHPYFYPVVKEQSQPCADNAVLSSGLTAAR
Sequence of Receptor-type tyrosine-protein kinase FLT3 (Homo sapiens), P36888 [UNDEFINED MUTATION] (P36888 whole entry, looked up, change not shown): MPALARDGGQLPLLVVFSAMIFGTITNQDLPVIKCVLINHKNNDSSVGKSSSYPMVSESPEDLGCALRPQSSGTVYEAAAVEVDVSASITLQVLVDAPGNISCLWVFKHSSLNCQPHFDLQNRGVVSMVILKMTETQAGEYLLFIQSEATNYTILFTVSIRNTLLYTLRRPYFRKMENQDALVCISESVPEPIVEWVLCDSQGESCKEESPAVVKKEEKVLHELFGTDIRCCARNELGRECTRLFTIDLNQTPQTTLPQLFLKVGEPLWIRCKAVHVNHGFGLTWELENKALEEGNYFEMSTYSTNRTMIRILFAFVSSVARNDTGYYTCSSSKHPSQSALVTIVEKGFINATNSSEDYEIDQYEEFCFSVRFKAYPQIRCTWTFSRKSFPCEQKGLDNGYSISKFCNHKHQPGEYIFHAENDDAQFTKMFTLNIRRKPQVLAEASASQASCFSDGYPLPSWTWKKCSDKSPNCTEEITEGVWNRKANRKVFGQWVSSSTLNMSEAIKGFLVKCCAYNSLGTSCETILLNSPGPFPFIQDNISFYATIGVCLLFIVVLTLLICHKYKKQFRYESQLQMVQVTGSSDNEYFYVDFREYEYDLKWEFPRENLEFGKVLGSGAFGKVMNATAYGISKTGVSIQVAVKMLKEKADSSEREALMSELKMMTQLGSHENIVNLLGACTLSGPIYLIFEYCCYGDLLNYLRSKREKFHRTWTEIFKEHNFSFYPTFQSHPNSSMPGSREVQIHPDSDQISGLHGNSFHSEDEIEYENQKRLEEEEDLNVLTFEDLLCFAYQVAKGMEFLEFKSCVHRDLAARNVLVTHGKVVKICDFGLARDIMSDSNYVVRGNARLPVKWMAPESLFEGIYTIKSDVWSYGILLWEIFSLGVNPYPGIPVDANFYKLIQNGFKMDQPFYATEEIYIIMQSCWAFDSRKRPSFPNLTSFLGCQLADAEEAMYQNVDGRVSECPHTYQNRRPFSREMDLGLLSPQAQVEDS
Sequence of Activin receptor type-2A (Homo sapiens) (P27037 whole entry): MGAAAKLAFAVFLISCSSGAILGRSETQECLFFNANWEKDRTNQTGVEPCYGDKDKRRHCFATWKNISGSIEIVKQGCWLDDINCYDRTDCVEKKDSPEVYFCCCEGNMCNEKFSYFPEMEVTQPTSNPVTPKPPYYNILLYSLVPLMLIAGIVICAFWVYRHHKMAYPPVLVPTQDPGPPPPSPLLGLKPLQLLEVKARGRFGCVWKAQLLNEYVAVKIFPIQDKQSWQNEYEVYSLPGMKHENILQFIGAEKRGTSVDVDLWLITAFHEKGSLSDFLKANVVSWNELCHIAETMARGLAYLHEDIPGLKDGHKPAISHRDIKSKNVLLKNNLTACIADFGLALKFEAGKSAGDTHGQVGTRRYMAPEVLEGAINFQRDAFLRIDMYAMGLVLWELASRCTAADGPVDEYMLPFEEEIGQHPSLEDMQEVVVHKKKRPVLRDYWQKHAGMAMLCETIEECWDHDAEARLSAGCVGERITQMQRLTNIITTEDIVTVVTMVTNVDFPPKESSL

C[C@@H]1CN(c2cc(-c3nn(C)c4ccc(OC5(C)CC5)cc34)ncn2)C[C@H](C)O1 [MLi-2-NC]
inactive: [1]; [8] 100% | [2]; [8] 88% | [3]; [8] 100% | [4]; [8] 86% | [5]; [8] 99% | [6]; [8] 82% | [7]; [8] 64%

C[C@@H]1CN(c2cc(-c3n[nH]c4ccc(OC5(C)CC5)cc34)ncn2)C[C@H](C)O1 [MLi-2]
inactive: [1]; [9] 82% | [2]; [9] 75% | [3]; [9] 94% | [4]; [9] 100% | [5]; [9] 84% | [6]; [9] 84% | [7]; [9] 82%

Reference: ChEMBL document CHEMBL4507291 (2021)
